Test results taken from PMC12281424, “A Rac-specific competitive inhibitor of guanine nucleotide binding reduces metastasis in triple-negative breast cancer” (Cell Reports Medicine, 2025).

Experiments:
[1] = In vivo pharmacokinetics and tissue distribution; design: species or system mouse; conditions: 25 mg/kg i.p.
Procedure: A41 was administrated intraperitoneally (25 mg/kg, aqueous solution of A41 in 5% DMSO, 50% PEG) in 2 months old C57Bl/6 after 4 h of fasting. After 5, 30, 60, 120 and 360 minutes following injection, mice (n = 3 per kinetic time) were sacrificed and tissues (blood, heart, lung, liver, kidney and brain) were collected. Control mice (n = 5) were used to get blank tissues for mass spectrometry analyses. Blood was collected by cardiac puncture into tubes containing 10% EDTA. Immediately after blood collection, plasma was separated by centrifugation for 5 min at 4 °C (2,000 × g). Solid tissues were rapidly excised and snap frozen in liquid nitrogen before to be disrupted and homogenized in PBS (1/10; wt/vol) using TissueLyser II (Quiagen). A41 concentrations were determined in mouse plasma and tissues by liquid chromatography-tandem mass spectrometry (LC-MS/MS). All solvents were LC-MS grade and purchased from Biosolve (Valkenswaard, Netherlands). A41 10× standard solutions were prepared and serially diluted in acetonitrile to obtain 8 standard solutions ranging 10-20,000 nmol/L. A41 10X standard solutions (5 μL or 20 μL) were added to blank plasma (45 μL) or blank tissue homogenates (180 μL), respectively, to get final concentrations ranging 1-2,000 nmol/L. Acetonitrile (5 μL or 20 μL) was added to plasma (45 μL) or tissue samples (180 μL). Tissue homogenates (standards and samples) were then centrifugated for 5 min at 5,000 × g for 5 min at 10 °C and supernatants (100 μL) were collected. Proteins were precipitated by the addition of 150 μL or 300 μL of acetonitrile containing labeled D3-A41 as internal standard (200 nmol/L) in all plasma (50 μL) and tissue supernatants (100 μL), respectively. After centrifugation (17,000 × g, 10 min, 10 °C), supernatants were collected and dried under a gentle stream of nitrogen. Dried samples were finally reconstituted with 25% acetonitrile containing 0.1% formic acid (100 μL), and injected into the LC-MS/MS system. Analyses were performed on a Xevo® TQD mass spectrometer with an electrospray (ESI) interface and an Acquity H-Class® UPLC™ device (Waters Corporation, Milford, MA, USA). Samples (10 μL) were injected onto a BEH C18 column (1.7 μm; 2.1 × 50 mm, Waters Corporation) held at 60 °C, and compounds were separated with a linear gradient of mobile phase B (acetonitrile, 0.1% formic acid) in mobile phase A (water, 0.1% formic acid) at a flow rate of 500 μL/min. […] A41 and its internal standard d3-A41 were then detected by the mass spectrometer with the ESI interface operating in the positive ion mode (capillary voltage, 3 kV; desolvatation gas (N2) flow and temperature, 900 L/h and 450 °C; source temperature, 120 °C). The multiple reaction monitoring mode was applied for MS/MS detection at the following mass-to-charge (m/z) ratio transitions: 487.1 → 153.0 and 490.2 → 156.0 for A41 and d3-A41, respectively. Cone voltage and collision energy were set at 35 V and 20 eV, respectively. Data acquisition and processing were achieved using MassLynx® and TargetLynx® softwares (version 4.1, Waters Corporation). Chromatographic peak area ratios between A41 and its internal standard constituted the detector responses. Standard solutions were used to plot calibration curves for quantification and dilution factors related to biological matrix preparations were included in calculation. The linearity was expressed by the mean r^2 which was greater than 0.995 for all matrices (linear regression, 1/x weighting, origin excluded). AUC0-6h was calculated as follow: AUC0−6h=∫06hC0e^−Ktdt=C0/K Where K = constant of elimination, and […].
Supplementary Fig. 7: A41 pharmacokinetics. (a) Molecule distribution in plasma and indicatedorgans afterintraperitonealinjectionof A41 (25 mg/kg) in mice(N=3 mice/kinetictimepoint). (b) Pharmacokinetic parametersof A41 calculated in mice after a singleintraperitonealinjection(25mg/kg). AUC = Area Under the Concentration-time curve.

Adrenergic α2A = Adrenergic α2A (Homo sapiens, UniProt P08913); assay: Safety screen; type: binding
Adrenergic α2A, sequence (P08913 whole entry): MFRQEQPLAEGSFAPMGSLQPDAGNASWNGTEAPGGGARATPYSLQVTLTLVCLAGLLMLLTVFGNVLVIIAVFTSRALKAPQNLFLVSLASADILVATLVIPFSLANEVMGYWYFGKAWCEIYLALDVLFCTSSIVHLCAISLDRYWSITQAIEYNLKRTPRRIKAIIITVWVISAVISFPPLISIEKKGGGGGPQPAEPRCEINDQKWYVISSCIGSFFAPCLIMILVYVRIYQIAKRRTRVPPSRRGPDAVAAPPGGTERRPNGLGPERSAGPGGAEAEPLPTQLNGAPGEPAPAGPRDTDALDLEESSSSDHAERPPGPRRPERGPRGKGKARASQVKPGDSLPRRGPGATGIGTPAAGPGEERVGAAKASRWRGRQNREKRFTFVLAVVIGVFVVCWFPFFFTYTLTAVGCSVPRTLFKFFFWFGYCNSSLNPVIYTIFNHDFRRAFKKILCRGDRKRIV
Procedure: Blood cell counts, kinase profiler, safety screen, bacterial cytotoxicity, Ames, micronucleus assays were performed by the company Eurofins (France).

MAPK1(h) = MAPK1(h) (Homo sapiens, UniProt P27361); assay: Kinase Profiler; type: biochemical
MAPK1(h), sequence (P27361 whole entry): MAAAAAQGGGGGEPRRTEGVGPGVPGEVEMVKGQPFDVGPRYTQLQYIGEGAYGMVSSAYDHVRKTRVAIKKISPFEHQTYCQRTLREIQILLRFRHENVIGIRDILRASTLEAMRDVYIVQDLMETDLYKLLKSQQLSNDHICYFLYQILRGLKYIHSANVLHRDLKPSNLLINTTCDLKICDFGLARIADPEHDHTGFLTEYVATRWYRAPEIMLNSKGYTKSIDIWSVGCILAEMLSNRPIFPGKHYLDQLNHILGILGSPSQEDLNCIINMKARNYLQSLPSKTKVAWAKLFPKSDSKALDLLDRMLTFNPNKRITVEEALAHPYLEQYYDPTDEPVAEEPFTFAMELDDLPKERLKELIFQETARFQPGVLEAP
Procedure: (§1) The kinase profiler was performed by the company Eurofins (Discovery, Panlab and Cerep).

EphA5(h) = EphA5(h) (Homo sapiens, UniProt P54756); assay: Kinase Profiler; type: biochemical
EphA5(h), sequence (P54756 25-1037): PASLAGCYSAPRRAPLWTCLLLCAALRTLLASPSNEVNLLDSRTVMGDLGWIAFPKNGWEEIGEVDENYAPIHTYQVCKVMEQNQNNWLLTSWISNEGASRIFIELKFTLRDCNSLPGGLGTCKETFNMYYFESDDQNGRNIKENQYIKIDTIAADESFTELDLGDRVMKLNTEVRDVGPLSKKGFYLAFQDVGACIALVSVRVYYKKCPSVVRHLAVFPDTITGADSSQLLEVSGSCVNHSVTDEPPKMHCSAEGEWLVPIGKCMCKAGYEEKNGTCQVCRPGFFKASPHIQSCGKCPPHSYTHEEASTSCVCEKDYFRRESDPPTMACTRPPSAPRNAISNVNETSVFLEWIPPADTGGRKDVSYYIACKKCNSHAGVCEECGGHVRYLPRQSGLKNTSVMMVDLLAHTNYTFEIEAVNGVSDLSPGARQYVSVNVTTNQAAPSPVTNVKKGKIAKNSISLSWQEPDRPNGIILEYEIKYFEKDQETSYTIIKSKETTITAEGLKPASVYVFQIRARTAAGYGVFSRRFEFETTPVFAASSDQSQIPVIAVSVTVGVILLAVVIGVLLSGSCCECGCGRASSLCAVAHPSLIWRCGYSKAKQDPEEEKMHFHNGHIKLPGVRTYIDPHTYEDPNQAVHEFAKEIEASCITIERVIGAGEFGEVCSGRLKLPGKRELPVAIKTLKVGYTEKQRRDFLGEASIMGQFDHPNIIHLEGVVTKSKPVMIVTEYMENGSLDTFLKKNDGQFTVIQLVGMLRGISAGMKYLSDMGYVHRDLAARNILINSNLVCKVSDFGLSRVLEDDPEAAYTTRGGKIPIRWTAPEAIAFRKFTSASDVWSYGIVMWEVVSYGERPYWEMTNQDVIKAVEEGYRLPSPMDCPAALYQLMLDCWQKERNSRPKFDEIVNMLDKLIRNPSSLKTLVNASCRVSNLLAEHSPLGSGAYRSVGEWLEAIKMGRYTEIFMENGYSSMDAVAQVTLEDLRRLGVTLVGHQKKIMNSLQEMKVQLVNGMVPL
Procedure: (§2) Blood cell counts, kinase profiler, safety screen, bacterial cytotoxicity, Ames, micronucleus assays were performed by the company Eurofins (France). The kinase profiler was performed by the company Eurofins (Discovery, Panlab and Cerep).

ROCK-II(r) = ROCK-II(r) (Rattus norvegicus, UniProt Q62868); assay: Kinase Profiler; type: biochemical
Procedure: as §2

TGFBR2(h) = TGFBR2(h) (Homo sapiens, UniProt P37173); assay: Kinase Profiler; type: biochemical
TGFBR2(h), sequence (P37173 23-567): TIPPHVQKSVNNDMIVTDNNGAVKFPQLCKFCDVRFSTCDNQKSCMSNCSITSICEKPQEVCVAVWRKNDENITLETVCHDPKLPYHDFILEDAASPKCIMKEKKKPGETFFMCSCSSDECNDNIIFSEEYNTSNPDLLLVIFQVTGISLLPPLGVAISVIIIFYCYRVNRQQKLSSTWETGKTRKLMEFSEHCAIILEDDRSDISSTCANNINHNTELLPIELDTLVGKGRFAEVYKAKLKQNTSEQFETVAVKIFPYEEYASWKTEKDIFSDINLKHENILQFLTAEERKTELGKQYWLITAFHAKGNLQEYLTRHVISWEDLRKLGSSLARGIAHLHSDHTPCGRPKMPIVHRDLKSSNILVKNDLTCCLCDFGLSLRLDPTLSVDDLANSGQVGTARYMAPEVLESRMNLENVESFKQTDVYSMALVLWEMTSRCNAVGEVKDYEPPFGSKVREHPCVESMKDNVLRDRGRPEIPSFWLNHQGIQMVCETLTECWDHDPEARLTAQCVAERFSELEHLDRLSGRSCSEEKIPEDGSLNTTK
Procedure: as §2

HIPK1(h) = HIPK1(h) (Homo sapiens, UniProt Q86Z02); assay: Kinase Profiler; type: biochemical
Procedure: as §1

PI3K (p110a/p85a)(h) = PI3K (p110a/p85a)(h) (Homo sapiens, UniProt P42336); assay: Kinase Profiler; type: biochemical
PI3K (p110a/p85a)(h), sequence (P42336 whole entry): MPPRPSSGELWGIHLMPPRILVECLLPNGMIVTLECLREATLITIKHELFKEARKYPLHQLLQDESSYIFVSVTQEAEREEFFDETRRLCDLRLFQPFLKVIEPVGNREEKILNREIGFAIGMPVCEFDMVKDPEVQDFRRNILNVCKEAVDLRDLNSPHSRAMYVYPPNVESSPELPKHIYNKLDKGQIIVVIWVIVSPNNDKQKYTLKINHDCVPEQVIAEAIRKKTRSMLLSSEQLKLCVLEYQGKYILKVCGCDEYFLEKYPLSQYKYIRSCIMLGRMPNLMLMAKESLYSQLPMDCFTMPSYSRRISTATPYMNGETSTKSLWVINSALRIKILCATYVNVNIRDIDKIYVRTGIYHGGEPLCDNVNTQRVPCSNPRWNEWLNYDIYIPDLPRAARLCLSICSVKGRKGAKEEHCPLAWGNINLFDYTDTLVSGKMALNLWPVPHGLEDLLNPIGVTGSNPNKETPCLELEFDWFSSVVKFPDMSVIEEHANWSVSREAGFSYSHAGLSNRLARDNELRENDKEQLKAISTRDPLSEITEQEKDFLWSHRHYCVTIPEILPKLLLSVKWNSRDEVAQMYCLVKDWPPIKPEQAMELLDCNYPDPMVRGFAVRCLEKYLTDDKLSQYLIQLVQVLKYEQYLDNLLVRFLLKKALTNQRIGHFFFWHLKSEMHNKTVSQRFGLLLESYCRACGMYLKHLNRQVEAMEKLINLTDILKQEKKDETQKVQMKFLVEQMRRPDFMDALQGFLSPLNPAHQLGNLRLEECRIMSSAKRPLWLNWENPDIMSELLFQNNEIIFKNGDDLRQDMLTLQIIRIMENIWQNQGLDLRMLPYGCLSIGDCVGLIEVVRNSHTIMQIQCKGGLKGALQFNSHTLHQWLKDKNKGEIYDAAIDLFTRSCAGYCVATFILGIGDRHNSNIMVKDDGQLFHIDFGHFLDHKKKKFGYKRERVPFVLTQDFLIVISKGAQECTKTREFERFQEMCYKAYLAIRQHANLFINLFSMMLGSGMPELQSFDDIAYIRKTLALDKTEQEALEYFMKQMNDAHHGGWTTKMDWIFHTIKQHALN
PI3K (p110a/p85a)(h), sequence (P27986 whole entry partner): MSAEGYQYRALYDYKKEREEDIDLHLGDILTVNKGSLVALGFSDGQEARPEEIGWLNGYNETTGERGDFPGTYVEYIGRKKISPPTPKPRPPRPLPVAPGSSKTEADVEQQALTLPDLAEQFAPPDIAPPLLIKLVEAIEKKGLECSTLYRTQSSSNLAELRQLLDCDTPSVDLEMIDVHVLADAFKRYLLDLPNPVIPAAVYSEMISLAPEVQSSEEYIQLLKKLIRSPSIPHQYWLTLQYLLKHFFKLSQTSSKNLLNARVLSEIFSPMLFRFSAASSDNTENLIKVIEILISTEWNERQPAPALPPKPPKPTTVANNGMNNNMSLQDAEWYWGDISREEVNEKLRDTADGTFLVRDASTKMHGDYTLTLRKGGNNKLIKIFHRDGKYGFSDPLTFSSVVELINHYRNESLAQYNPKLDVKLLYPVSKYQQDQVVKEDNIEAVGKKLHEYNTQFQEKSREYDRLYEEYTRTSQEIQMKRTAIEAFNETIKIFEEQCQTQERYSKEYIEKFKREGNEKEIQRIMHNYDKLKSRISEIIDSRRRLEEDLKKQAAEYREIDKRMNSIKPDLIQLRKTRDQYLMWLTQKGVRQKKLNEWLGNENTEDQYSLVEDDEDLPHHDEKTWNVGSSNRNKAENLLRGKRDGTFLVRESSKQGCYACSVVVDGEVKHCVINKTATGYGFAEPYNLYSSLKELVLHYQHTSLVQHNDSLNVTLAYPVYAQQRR
Procedure: as §1

LRRK2(h) = LRRK2(h) (Homo sapiens, UniProt Q5S007); assay: Kinase Profiler; type: biochemical
Procedure: as §1

PI3K e (p110a/p65a)(h) = PI3K e (p110a/p65a)(h) (Homo sapiens, UniProt P42336); assay: Kinase Profiler; type: biochemical
PI3K e (p110a/p65a)(h), sequence (P42336 whole entry): as the sequence (P42336 whole entry) above
PI3K e (p110a/p65a)(h), sequence (P27986 1-571 partner limits assumed): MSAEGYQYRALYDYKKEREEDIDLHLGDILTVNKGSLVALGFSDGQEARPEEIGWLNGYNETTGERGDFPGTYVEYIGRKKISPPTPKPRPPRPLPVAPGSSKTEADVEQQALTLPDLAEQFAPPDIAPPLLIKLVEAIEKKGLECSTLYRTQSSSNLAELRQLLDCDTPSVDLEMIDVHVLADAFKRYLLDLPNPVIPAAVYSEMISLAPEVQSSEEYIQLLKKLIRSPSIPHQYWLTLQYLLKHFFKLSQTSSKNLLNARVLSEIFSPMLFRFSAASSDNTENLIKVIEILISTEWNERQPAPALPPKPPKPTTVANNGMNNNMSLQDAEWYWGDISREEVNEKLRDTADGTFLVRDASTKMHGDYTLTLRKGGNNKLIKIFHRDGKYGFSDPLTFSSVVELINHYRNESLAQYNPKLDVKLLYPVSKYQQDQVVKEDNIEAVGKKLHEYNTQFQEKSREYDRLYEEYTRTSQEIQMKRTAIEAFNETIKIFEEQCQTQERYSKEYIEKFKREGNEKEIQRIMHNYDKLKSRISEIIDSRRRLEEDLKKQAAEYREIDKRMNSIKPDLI
Procedure: as §1

## COc1ccc(OC)c(NS(=O)(=O)c2ccc(NC(=O)CCSc3ccc(C)cc3)cc2)c1 [Compound A41]
[1]
  C0: 4335 ng/mL
  blood-brain barrier crossing: could not cross the blood-brain barrier
  t ½: 1.6294 h
  time over which plasma concentration declined: 2 to 3 h
  tissue concentration, brain: extremely low concentration
  tissue concentration, kidney: highest concentration
  tissue distribution, liver, heart, and lungs: detected
[1]; parameter list
  AUC0-6h: 14.3 µg·h/mL
[1]; plasma
  AUC0-6h: 14.3 (µg/ mL)xh
  Cmax (peak plasma concentration): 15056 ± 500 ng/mL
Adrenergic α2A
  % inh.: 29%
MAPK1(h)
  Activity(%): 103%
EphA5(h)
  Activity(%): 110%
ROCK-II(r)
  Activity(%): 110%
TGFBR2(h)
  Activity(%): 99%
HIPK1(h)
  Activity(%): 110%
PI3K (p110a/p85a)(h)
  Activity(%): 100%
LRRK2(h)
  Activity(%): 111%
PI3K e (p110a/p65a)(h)
  Activity(%): 102%
